The results in this text go back to patent US20110318798A1, “REMOVAL OF INHIBITORS OF MICROBIAL FE[…] INHIBITOR-CONTAINING COMPOSITIONS” (priority 2010, published 2011).

One experiment concerns Clostridium. The settings on record: in the fermentation medium.
The test system of experiment [1] is butanol-producing Clostridium strain. The class given is cell-based.

On to `O=CO` [Formic acid], for which the “concentration at which it becomes inhibitory to growth of Clostridium and subsequent production of butanol” value in the experiment with Clostridium lay in the range of 0.3 to 0.4 g/L. Take `[Cl][Fe]([Cl])[Cl]` [ferric chloride]: in experiment [1] (2 g/L to 5 g/L metal salt, pH 9 to 10.5, 20° C. to 40° C.), the “transformation of un-fermentable hydrolysate into fermentable feedstock supporting microbial growth and butanol production” value is listed as “successful”. In addition, in experiment [1] (hydrolysate treated with 3 g/L […] or 2 g/l ferric chloride, pH 9.5, room temperature (about 20° C.), fermentation 10 ml, 30° C.), the “butanol concentration after microbial fermentation for 72 hours” value was 7.69 g/L.
